# According to patent US20260297060A1, “COMPOUNDS FOR THE DEGRADATION OF MUTANT BRAF” (C4 THERAPEUTICS, INC., priority 2023, published 2026):
# Like-named read-outs stand apart in the source and are kept apart here.
# Assay: Example 8 pharmacokinetics assay for efficacy study (plasma, liver)
# Assay type: in vivo, BALB/c nude mice
# Settings: mouse, po, 10 mg/kg, p.o.
# Protocol: For efficacy study, agents were tested in the A375 human melanoma xenografts model. Compound 8, Compound 26, and Compound 38 were administered to BALB/c nude mice bearing A375 xenografts from day 0 and dosed p.o. twice per day (BID). Compound 8 and Compound 26 were dosed at 10 mg/kg for 21 days. Compound 38 was dosed at 10 mg/kg for 10 days. The known BRAF inhibitor encorafenib was used as a positive control. encorafenib was administered from day 1 and dosed p.o. daily (QD) for 21 days and dosed at 35 mg/kg.
# The plasma samples were collected at predetermined time points for PK analysis. For non-termination plasma collection, blood samples were collected into the 1.5 mL Eppendorf tubes containing 3 μL of 0.5 M EDTA-K2. For termination plasma collection, the mice were euthanized at predetermined time points post the treatment and the blood samples were collected into the 1.5 mL Eppendorf tubes containing 15 μL of 0.5 M EDTA-K2. And then the anticoagulant blood samples were centrifuged at 2,500 g at 4° C. for 15 minutes. The plasma samples were separated into 2 aliquots. The 1st was used for PK analysis, and the 2nd served as backup. The samples were stored at −80° C. before bioanalysis.
# Liver samples were collected at predetermined time points for PK analysis. The left lobe of the liver was dissected out and split into 2 parts. The 1st part was used for PK analysis and the 2nd part served as the backup for the study. The samples were transferred into pre-labeled tubes and quickly froze in liquid nitrogen within 2 minutes after dissection. The samples were stored at −80° C. before bioanalysis.
# The harvested plasma and liver samples were processed for pharmacokinetics analysis by LC-MS/MS with a concentration range of 2.0~2000 ng/mL for encorafenib in plasma and liver homogenate, 10.0-10,000 ng/mL for Compound 8 and Compound 38 in plasma and liver homogenate, 20.0~20,000 ng/mL for Compound 26 in plasma and liver homogenate.
# [1] = liver, BID × 21 days, read-out: Concentration in Liver (mean ± SEM)
# [2] = plasma, BID × 21 days, read-out: Concentration in Plasma (mean ± SEM)
"concentration at 6 h (liver, BID × 10 days, read-out: Concentration in Liver (mean ± SEM))","concentration at 6 h (plasma, BID × 10 days, read-out: Concentration in Plasma (mean ± SEM))",Compound,concentration at 6 h [1],concentration at 6 h [2]
–,–,"CCN(C)S(=O)(=O)Nc1ccc(F)c(Oc2ccc3ncn(C4CC5(CCN(C6CCC(c7cc8c(cc7F)c(N7CCC(=O)NC7=O)nn8C)CC6)CC5)C4)c(=O)c3c2)c1C#N (single isomer, unassigned) [Compound 8, 6-[2-cyano-3-[[ethyl(methyl)sulfamoyl]amino]-6-fluoro-phenoxy]-3-[7-[4-[3-(2,4-dioxohexahydropyrimidin-1-yl)-5-fluoro-1-methyl-indazol-6-yl]cyclohexyl]-7-azaspiro[3.5]nonan-2-yl]-4-oxo-quinazoline]",738 ± 299 ng/g,984 ± 364 ng/mL
17200 ± 2570 ng/g,18300 ± 2240 ng/mL,"CCN(C)S(=O)(=O)Nc1ccc(F)c(Oc2ccc3ncn([C@H]4COC5(CCC(N6CCC(c7cc8c(cc7F)c(N7CCC(=O)NC7=O)nn8C)C(F)(F)C6)CC5)C4)c(=O)c3c2)c1C#N (single isomer, unassigned) [Compound 38]",–,–
–,–,"CCN(C)S(=O)(=O)Nc1ccc(F)c(Oc2ccc3ncn([C@H]4COC5(CCN(C6CC7(C6)CN(c6cc8c(cc6F)c(N6CCC(=O)NC6=O)nn8C)C7)CC5)C4)c(=O)c3c2)c1C#N [Compound 26, (3R)-3-[6-[2-cyano-3-[[ethyl(methyl)sulfamoyl]amino]-6-fluoro-phenoxy]-4-oxo-quinazolin-3-yl]-8-[2-[3-(2,4-dioxohexahydropyrimidin-1-yl)-5-fluoro-1-methyl-indazol-6-yl]-2-azaspiro[3.3]heptan-6-yl]-1-oxa-8-azaspiro[4.5]decane]",4720 ± 367 ng/g,16000 ± 2060 ng/mL
